Measurements reported in ChEMBL document CHEMBL1134701, “Atropisomeric quinazolin-4-one derivatives are potent noncompetitive alpha-amino-3-hydroxy-5-methyl-4-isoxazolepropionic acid (AMPA) receptor antagonists” (Bioorg Med Chem Lett, 2001).

Columns and labels:
[1] = target: T1, Glutamate receptor ionotropic, AMPA (Rattus norvegicus, UniProt P19490+P19491+P19492+P19493); assay: Ability to block kainate-induced 45 [Ca2+] influx through functional assay of Ionotropic glutamate receptor AMPA activity in rat cerebellar granule cells.
[2] = system: Mus musculus; assay: Blockade of pentylenetetrazole induced seizures in mice on subcutaneous administration; type: functional; conditions: sc, read-out: ID50 (the source's name)
[3] = target: T1, Glutamate receptor ionotropic, AMPA; assay: Ability to block kainate-induced 45 [Ca2+] influx through functional assay of Ionotropic glutamate receptor AMPA activity in rat cerebellar granule cells
[4] = system: Mus musculus; assay: Blockade of ivc AMPA induced seizures in mice on subcutaneous administration (95%CI); type: functional
[5] = species on record: Rattus norvegicus; assay: Evaluated in patch clamp electrophysiology study for its selectively evoked AMPA and NMDA (glutamate receptors) mediated inward currents reduction; type: functional
[6] = system: Mus musculus; assay: Minimum effective dose in mice on subcutaneous administration; type: functional
[7] = system: Mus musculus; assay: Blockade of pentylenetetrazole induced seizures in mice on subcutaneous administration (95% CI); type: functional
[8] = target: T1, Glutamate receptor ionotropic, AMPA; assay: Evaluated in patch clamp electrophysiology study for its selectively evoked Ionotropic glutamate receptor AMPA mediated inward currents.
[9] = system: Rattus norvegicus; assay: Evaluated in vivo for the reduction in the population spike amplitude in the CA3 region of the hippocampus in anesthetized rat at a dose of 2 mg/kg (iv); type: functional

With `CCN(CC)Cc1cccc(/C=C/c2nc3ccc(F)cc3c(=O)n2-c2ccccc2Cl)n1` (stereo in doubt; (-)-38) the IC50 [1] was 0.1 nM and the ED50 [2] was 10 mg/kg.
Compound `COc1cc2nc(/C=C/c3ccccn3)n(-c3ccccc3C)c(=O)c2cc1OC` has an IC50 [3] greater than 1000 nM.
Work on `O=c1c2cc(F)ccc2nc(/C=C/c2cccc(N3CCCCC3)n2)n1-c1ccccc1Cl` yielded an IC50 [3] greater than 300 nM.
`COc1ccccc1-n1c(/C=C/c2ccccn2)nc2ccccc2c1=O` showed an IC50 [3] of 1100 nM.
`O=c1c2ccccc2nc(/C=C/c2ccccn2)n1-c1ccccc1C(F)(F)F` gave an IC50 [3] of 146 nM.
Compound `Cc1ccccc1-n1c(/C=C/c2ccccn2)nc2c(Cl)cc(Cl)cc2c1=O` has an IC50 [3] greater than 1000 nM.
Work on `CN(C)Cc1cccc(/C=C/c2nc3ccc(F)cc3c(=O)n2-c2ccccc2Cl)n1` yielded an IC50 [3] of 178 nM.
`CC(=O)OCc1cccc(/C=C/c2nc3ccc(F)cc3c(=O)n2-c2ccccc2Cl)n1` gave an IC50 [3] of 45 nM.
In the case of `COc1cccc(/C=C/c2nc3ccc(F)cc3c(=O)n2-c2ccccc2Cl)n1`, the IC50 [3] is reported as 31 nM.
Compound `Cc1ccccc1-n1c(/C=C/c2ccccn2)nc2ccccc2c1=O` [PIRIQUALONE] has an IC50 [3] of 460 nM.
With `CCNCc1cccc(/C=C/c2nc3ccc(F)cc3c(=O)n2-c2ccccc2Cl)n1` the IC50 [3] was 81 nM.
Work on `Cc1ccc2nc(/C=C/c3ccccn3)n(-c3ccccc3C)c(=O)c2c1` yielded an IC50 [3] of 1370 nM.
In the case of `Cc1ccccc1-n1c(/C=C/c2ccccn2)nc2cc(Cl)ccc2c1=O`, the IC50 [3] is reported as greater than 3000 nM.
`O=c1c2ccccc2nc(/C=C/c2ccccn2)n1-c1ccccc1` gave an IC50 [3] greater than 1000 nM.
With `O=c1c2ccccc2nc(/C=C/c2ccccn2)n1-c1ccccc1Br` the IC50 [3] was 102 nM.
In the case of `Cc1cccc(/C=C/c2nc3ccc(F)cc3c(=O)n2-c2ccccc2Cl)n1`, the IC50 [3] is reported as 36 nM.
For `O=c1c2cc(F)ccc2nc(/C=C/c2ccccn2)n1-c1ccccc1Br`, the IC50 [3] was 65 nM.
For `NCc1cccc(/C=C/c2nc3ccc(F)cc3c(=O)n2-c2ccccc2Cl)n1`, the IC50 [3] was 340 nM.
Compound `N#Cc1cccc(/C=C/c2nc3ccc(F)cc3c(=O)n2-c2ccccc2Cl)n1` has an IC50 [3] of 244 nM.
`O=c1c2cc(F)ccc2nc(/C=C/c2ccccn2)n1-c1c(F)cccc1F` gave an IC50 [3] greater than 300 nM.
Compound `O=c1c2cc(F)ccc2nc(/C=C/c2cccc(N3CCCC3)n2)n1-c1ccccc1Cl` has an IC50 [3] of 31 nM.
Compound `O=c1c2ccccc2nc(/C=C/c2ccccn2)n1-c1ccccc1Cl` has an IC50 [3] of 433 nM.
Compound `O=c1c2cc(F)ccc2nc(/C=C/c2cccc(CO)n2)n1-c1ccccc1Cl` has an IC50 [3] of 58 nM.
`O=Cc1cccc(/C=C/c2nc3ccc(F)cc3c(=O)n2-c2ccccc2Cl)n1` was tested, and the IC50 [3] was 97 nM.
For `Cc1cccc(C)c1-n1c(/C=C/c2ccccn2)nc2ccccc2c1=O`, the IC50 [3] was greater than 1000 nM.
In the case of `O=c1c2ccccc2nc(/C=C/c2ccccn2)n1-c1c(Cl)cccc1Cl`, the IC50 [3] is reported as greater than 1000 nM.
`COCc1cccc(/C=C/c2nc3ccc(F)cc3c(=O)n2-c2ccccc2Cl)n1` gave an IC50 [3] of 42 nM.
In the case of `CNCc1cccc(/C=C/c2nc3ccc(F)cc3c(=O)n2-c2ccccc2Cl)n1`, the IC50 [3] is reported as 103 nM.
`CCN(CC)Cc1cccc(/C=C/c2nc3ccc(F)cc3c(=O)n2-c2ccccc2Cl)n1` (stereo in doubt; 38) gave an ED50 ([4]; Mus musculus, sc, read-out: ID50 (the source's name)) of 3.6 mg/kg, a Reduction [5] of 36% and a minimal effective dose ([6]; Mus musculus, sc, read-out: MED) of 10 mg/kg. It also gave an ID50 [7] of 3.8 mg/kg, an IC50 [3] of 74 nM and an IC50 [8] of 25 nM. It also gave a Blockade [9] of 65.1%.
Compound `Cc1ccccc1-n1c(/C=C/c2ccccn2)nc2ccc(Cl)cc2c1=O` has an IC50 [3] of 124 nM.
Compound `Cc1ccccc1-n1c(/C=C/c2ccccn2)nc2ccc(F)cc2c1=O` has an IC50 [3] of 248 nM.
With `COc1cccc2c(=O)n(-c3ccccc3C)c(/C=C/c3ccccn3)nc12` the IC50 [3] was greater than 1000 nM.
With `O=c1c2cc(F)ccc2nc(/C=C/c2cccc(CF)n2)n1-c1ccccc1Cl` the IC50 [3] was 56 nM.
`CC(C)NCc1cccc(/C=C/c2nc3ccc(F)cc3c(=O)n2-c2ccccc2Cl)n1` showed an IC50 [3] of 59 nM.
With `O=c1c2ccccc2nc(/C=C/c2ccccn2)n1-c1ccccc1F` the IC50 [3] was 116 nM.
`O=C(O)c1cccc(/C=C/c2nc3ccc(F)cc3c(=O)n2-c2ccccc2Cl)n1` was tested, and the IC50 [3] was greater than 1000 nM.
`COC(=O)c1cccc(/C=C/c2nc3ccc(F)cc3c(=O)n2-c2ccccc2Cl)n1` was tested, and the IC50 [3] was 400 nM.
`CN(C)CCN(C)Cc1cccc(/C=C/c2nc3ccc(F)cc3c(=O)n2-c2ccccc2Cl)n1` showed an IC50 [3] of 150 nM.
`O=c1c2cc(F)ccc2nc(/C=C/c2ccccn2)n1-c1ccccc1Cl` was tested, and the IC50 [3] was 96 nM.
`O=c1c2cc(F)ccc2nc(/C=C/c2ccccn2)n1-c1ccccc1F` gave an IC50 [3] of 180 nM.
With `CCN(CC)Cc1cccc(/C=C/c2nc3ccc(F)cc3c(=O)n2-c2ccccc2Cl)n1` (stereo in doubt; (+)-38) the ID50 [4] was 3.1 mg/kg, the IC50 [1] was 36 nM and the MED [6] was 5.6 mg/kg. The ID50 [7] was 1.5 mg/kg.
With `CCOCc1cccc(/C=C/c2nc3ccc(F)cc3c(=O)n2-c2ccccc2Cl)n1` the IC50 [3] was 82 nM.
In the case of `Cc1ccccc1-n1c(/C=C/c2ccccn2)nc2c(Cl)cccc2c1=O`, the IC50 [3] is reported as greater than 1000 nM.
Work on `Cc1ccccc1-n1c(/C=C/c2ccccn2)nc2ccc(Br)cc2c1=O` yielded an IC50 [3] of 162 nM.
